Assays:
anesthetized monkeys = experiment: In vivo neuromuscular block and cardiovascular side effects, monkey (Example 8, Table 6); conditions: for ED50: Primates, intravenous dose causing 50% neuromuscular block, read-out: ED50; for Onset: time to 80-85% neuromuscular block
Outline: (§1)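 Electromyographic and mechanomyographic responses quantified. Monkeys sedated with intramuscular ketamine, then general anesthesia with intravenous pentobarbital and propofol; juvenile pigs induced with inhaled halothane.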

[1] = test system: anesthetized juvenile Duroc pigs; experiment: animal or person; conditions: for % VB at ED80 nmb (vagal block) / BP (change in arterial blood pressure) / HR (change in heart rate): in vivo; for RI (recovery index): spontaneous recovery, 25-75% neuromuscular response; for Onset: time to 80-85% neuromuscular block
Source text: (§2) The data on muscle relaxant action were obtained on anesthetized rats, and when indicated, also on juvenile pigs
(§3) Adult, male albino rats were anesthetized with pentobarbital injected intraperitoneally. Juvenile, Duroc pigs 9-12 kg body weight were anesthetized with Chloralose Nembutal sodium mixture intraperitoneally after deep sedation with inhaled halothane. The trachea was cannulated for artificial respiration via a small animal respirator. The carotid artery was cannulated for recording blood pressure via a transducer and heart rate by a cardiotachograph on a polygraph. One external jugular vein was cannulated for i.v. drug administration. Neuromuscular function was monitored by electromyography, recording evoked responses from the anterior tibial muscle as a result of supramaximal nerve stimuli consisting of single or “train-of-four” rectangular pulses of 0.1-0.2 msec duration every 10-12 seconds, delivered to the sciatic or common peroneal nerve by a laboratory nerve stimulator. Another mode of stimulation included repeated single stimuli delivered at 0.1 Hz or 1 Hz. […] The agents were dissolved in physiologic saline and injected intravenously at appropriate time intervals. The intensity, onset, and duration of neuromuscular block and its type were determined with each agent. Through administering several doses, the doses corresponding to 50%, 80% and 90% neuromuscular block were determined. All agents were compared with selected standard neuromuscular blocking compounds, e.g., rocuronium.
(§4) Onset=time in minutes to 80-85% neuromuscular block.
(§5) RI=recovery index, minutes, spontaneous recovery, 25-75% neuromuscular response.
(§6) VB=vagal block, %, at 80-85% neuromuscular blocking dose.
(§7) HR=change in heart rate, %, at 80-85% neuromuscular blocking dose.
(§8) BP=change in arterial blood pressure, %, at 80-85% neuromuscular blocking dose.

[2] = test system: anesthetized juvenile pigs; experiment: animal or person; format: in vivo; conditions: pig; for ED50: Sus scrofa, intravenous dose causing 50% neuromuscular block, read-out: ED50; for Onset: time to 80-85% neuromuscular block
Outline: as §1

[3] = test system: anesthetized rats (evoked responses of anterior tibial muscle); experiment: In vivo neuromuscular block and cardiovascular side effects, anesthetized rat (Example 8, Table 3); conditions: for ED50: Rattus norvegicus, iv; for VB (vagal block) / ΔBP (change in arterial blood pressure) / ΔH (change in heart rate) / RI (recovery index) / Onset: rat; for Onset: time to 80-85% neuromuscular block
Outline: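 Pentobarbital-anesthetized (i.p.), ventilated adult male rats given saline-dissolved agents i.v.; anterior tibial EMG responses to supramaximal single or train-of-four sciatic/peroneal stimuli, plus 0.1 or 1 Hz stimulation. Doses for 50%, 80%, 90% block derived. Onset: minutes to 80-85% block; RI: 25-75% spontaneous recovery; vagal block, heart rate and blood pressure changes (%) at 80-85% blocking dose.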

[4] = test system: anesthetized rats (evoked responses of anterior tibial muscle); experiment: Muscle relaxant (neuromuscular blocking) properties, anesthetized rat (Example 9, Table 9); conditions: for Onset: time to 80-85% neuromuscular block
Source text: as §2, §3, §4, §5, §6, §7, §8

dogs = experiment: animal or person; format: in vivo; conditions: dog; for ED50: Canis lupus familiaris, intravenous dose causing 50% neuromuscular block, read-out: ED50; for Onset: time to 80-85% neuromuscular block
[5] = test system: anesthetized cats (evoked responses of anterior tibial muscle); experiment: animal or person; conditions: for ED50: Felis catus, iv; for Onset: time to 80-85% neuromuscular block
Outline: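 Adult cats anesthetized i.p. with 70 mg/kg alpha chloralose plus 0.5 g/kg ethylurethane; agents in saline given i.v. Anterior tibial muscle responses to supramaximal single or train-of-four stimuli of sciatic or peroneal nerve recorded electromyographically and mechanomyographically, alongside blood pressure and heart rate.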

rabbits = experiment: In vivo neuromuscular block and cardiovascular side effects, rabbit (Example 8, Table 7); conditions: for ED50: Oryctolagus cuniculus, intravenous dose causing 50% neuromuscular block, read-out: ED50; for Onset: time to 80-85% neuromuscular block
[6] = at 80-85% neuromuscular blocking dose
[7] = spontaneous recovery, 25-75% neuromuscular response
[8] = cat, at 80-85% neuromuscular blocking dose

## C=CC[N+]1([C@H]2C[C@H]3[C@@H]4CC[C@H]5C[C@H](O)[C@@H](N6CCOCC6)C[C@]5(C)[C@H]4CC[C@]3(C)[C@H]2OC(C)=O)CCCC1 [Rocuronium, reference compound]
Anesthetized monkeys
  ED50: 0.013 mg/kg
  Onset: 3.5 min
Anesthetized monkeys; in vivo
  RI (recovery index): 5.6 min
  ΔBP (change in arterial blood pressure): 0%
  ΔH (change in heart rate): 0%
[1]; Duroc, pig
  % VB at ED80 nmb (vagal block): 47%
  BP (change in arterial blood pressure): 0%
  HR (change in heart rate): 0%
[1]; Sus scrofa, iv
  ED50: 0.35 mg/kg
[1]; pig
  RI (recovery index): 3.2 min
  Onset: 1.5 min
[2]
  ED50: 0.35 mg/kg
  Onset: 1.5 min
[2]; in vivo
  RI (recovery index): 3.2 min
  VB (vagal block): 47%
  ΔBP (change in arterial blood pressure): 0%
  ΔH (change in heart rate): 0%
[3]
  ED50: 0.45 mg/kg
  Onset: 0.95 min
[3]; male, in vivo
  VB (vagal block): 60%
  ΔBP (change in arterial blood pressure): 0%
  ΔH (change in heart rate): 0%
[3]; in vivo
  RI (recovery index): 1.3 min
[4]; Rattus norvegicus, iv
  ED50: 0.45 mg/kg
[4]; male, rat, in vivo
  % VB at ED80 nmb (vagal block): 60%
  BP (change in arterial blood pressure): 0%
  HR (change in heart rate): 0%
[4]; rat, in vivo
  RI (recovery index): 1.3 min
[4]; rat
  Onset: 0.95 min
dogs
  ED50: 0.076 mg/kg
  Onset: 1.9 min
dogs; in vivo
  RI (recovery index): 3.3 min
  ΔBP (change in arterial blood pressure): 0%
  ΔH (change in heart rate): 0%
[5]
  ED50: 0.185 mg/kg
[5]; cat, in vivo
  ΔBP (change in arterial blood pressure): 0%
  ΔH (change in heart rate): 0%
[5]; cat
  Onset: 2.1 min
[5]; in vivo
  RI (recovery index): 3.8 min
rabbits
  ED50: 0.03 mg/kg
  Onset: 1.1 min
rabbits; in vivo
  RI (recovery index): 2.4 min
  ΔBP (change in arterial blood pressure): 0%
  ΔH (change in heart rate): 0%

## Bis[N-(3,4-diacetoxybenzyl)-6-azabicyclo[3.2.1]octanium-3-yl]cyclohexane-1,3-dicarboxylate dibromide
[1]; pig
  % VB at ED80 nmb (vagal block): 70%
  BP (change in arterial blood pressure): 0%
  HR (change in heart rate): 0%
  RI (recovery index): 0.85 min
  Onset: 0.5 min
[1]; pig, intravenous dose causing 50% neuromuscular block
  ED50: 0.78 mg/kg
[4]; rat, in vivo
  % VB at ED80 nmb (vagal block): 5 (2) %
  BP (change in arterial blood pressure): 0%
  HR (change in heart rate): 0%
[4]; rat, intravenous dose causing 50% neuromuscular block, spread in brackets
  ED50: 384 (42) μg/kg
[4]; rat, spontaneous recovery, 25-75% neuromuscular response
  RI (recovery index): 0.5 (0.04) min
[4]; rat
  Onset: 0.7 (0.05) min

## COc1cc(C[N+]2(C)[C@@H]3CC[C@H]2C[C@@H](OC(=O)C2CCCC(C(=O)O[C@H]4C[C@H]5CC[C@@H](C4)[N+]5(C)Cc4ccc(OC(C)=O)c(OC)c4)C2)C3)ccc1OC(C)=O.[Br-].[Br-] (stereo partly drawn) [bis[N-(4-acetoxy-3-methoxybenzyl)tropanium-3α-yl]cyclohexane-1,3-dicarboxylate dibromide]
Anesthetized monkeys
  ED50: 0.1 mg/kg
  Onset: 0.9 min
Anesthetized monkeys; [6]
  ΔBP (change in arterial blood pressure): 0%
  ΔH (change in heart rate): 0%
Anesthetized monkeys; [7]
  RI (recovery index): 0.5 min
[2]
  ED50: 0.183 mg/kg
  Onset: 0.6 min
[2]; [6]
  VB (vagal block): 65%
  ΔBP (change in arterial blood pressure): 0%
  ΔH (change in heart rate): 0%
[2]; [7]
  RI (recovery index): 0.75 min
[3]
  ED50: 0.27 mg/kg
  Onset: 0.55 min
[3]; [6]
  VB (vagal block): 30%
  ΔBP (change in arterial blood pressure): 0%
  ΔH (change in heart rate): 0%
[3]; [7]
  RI (recovery index): 0.45 min
dogs
  ED50: 0.28 mg/kg
  Onset: 0.75 min
dogs; [6]
  ΔBP (change in arterial blood pressure): −25%
  ΔH (change in heart rate): 38%
dogs; [7]
  RI (recovery index): 0.5 min
[5]
  ED50: 0.325 mg/kg
[5]; [8]
  VB (vagal block): 33%
  ΔBP (change in arterial blood pressure): −5%
  ΔH (change in heart rate): 0%
[5]; cat, spontaneous recovery, 25-75% neuromuscular response
  RI (recovery index): 0.5 min
[5]; cat
  Onset: 0.9 min
rabbits
  ED50: 0.165 mg/kg
  Onset: 0.65 min
rabbits; [6]
  ΔBP (change in arterial blood pressure): 0%
  ΔH (change in heart rate): 0%
rabbits; [7]
  RI (recovery index): 0.65 min

From patent publication US6376510B1, “Neuromuscular relaxants” (Newlaxant LLC, priority 1997, dated 2002)
